According to US20060234980A1, “Antiinflammatory agent, agent for preventing/ameliorating allergic diseases and functional food” (priority 2002, published 2006):

Test system: oral sensitization model of BALB/c mouse
Assay: Oral sensitization model with OVA, oligosaccharide-added feeds, serum antigen-specific antibody titer (ELISA)
Assay type: in vivo
Conditions: 5% (w/w) in feed
Excerpt: An oral sensitization model of BALB/c mouse using ovalbumin (OVA) as a model antigen was produced, and influences exerted by various oligosaccharides added to feed on serum antibody titer were compared. Until initiation of the experiment, 12-week old male BALM/c mice were allowed to freely take AIN-93G as a base feed (α-corn starch, 529.5 g/kg; casein, 200 g/kg; sucrose, 100 g/kg; soy bean oil, 70 g/kg; cellulose, 50 g/kg; mineral mixing, 35 g/kg; vitamin mixing, 10 g/kg; L-cystine, 3 g/kg; choline bitartarate, 2.5 g/kg) . After pre-breeding for 1 week, an oligosaccahide no-[…] (base seed) group, and feeds obtained by substituting 5% (w/w) of the base feed with raffinose (RAF), α-GOS (hereinafter, referred to simply as GOS), fructooligosaccharide (FOS), xylooligosaccharide (XOS), that is, five groups were prepared, and mice were allowed to freely take these feeds for 8weeks. During this, an aqueous OVA solution (1 mg/0.2 mL) was orally administered forcibly everyday. After initiation of aministration of OVA, blood was collected from orbital venous plexus every one week, and centrifugally separated to obtain sera. Sear of one group (9/group) were pooled, and subjected to quantification of antigen-specific antibody titer by ELISA.

## OC[C@H]1O[C@H](OC[C@H]2O[C@H](O[C@]3(CO)O[C@H](CO)[C@@H](O)[C@@H]3O)[C@H](O)[C@@H](O)[C@@H]2O)[C@H](O)[C@@H](O)[C@H]1O [RAF, raffinose]
8 weeks daily oral OVA
  effect on increase of IgE (overall conclusion): effect of delaying increase
  effect on increase of IgG (overall conclusion): effect of delaying increase
At 2 to 5 weeks
  antigen-specific IgG in blood: changed lower than the oligosaccharide no-addition feed group
At 8 weeks
  antigen-specific IgE in blood: showed the same high value as that of the FOS group
Until 7 weeks
  antigen-specific IgE in blood: changed lower than the oligosaccharide no-addition feed group and the FOS feed group
